Data as given in patent US7388124B2 (priority 2001, dated 2008).
“And” between values parts separate entries of the source, which are not always exact repeats. Equal entries are not always repeated. Where two headings read alike, the source gives them in different places.

Legend:
[1] = tested on: rat pain model variants; experiment: Dynamic mechanical allodynia (camel hair brush) in rat pain model variants; type: in vivo, Sprague Dawley rats; conditions: n=12 rats
Procedure: (§1) The methods of preparation and testing were similar for all the variant pain models described in this example. Male Sprague Dawley rats initially weighing between 150 and 175 grams were housed singly. Baseline behaviors to stimulations of the paw on which the procedure was to be performed were recorded over several sessions after accommodation of 3-4 days, and the results were averaged and used as the baseline control data. The pain behaviors studied were static mechanical allodynia (e.g., light touch stimulation with von Frey fibers 4.56, 4.73, 4.93, and/or 5.07), dynamic mechanical allodynia (e.g., stimulation with moving camel hair brush), and/or mechanical hyperalgesia (e.g., pinprick stimulation).
(§2) After the baseline control data was collected, the specified procedure with a gel was performed near the chosen nerve of each variant group (see Tables 2-6 and 8-10), then the rats were tested post procedurally and intermittently for up to 77 days for behavioral changes (see Tables 2-6 and 8-11) and for their responses to substances with analgesic properties (see Tables 7 and 12).
(§3) The stimuli used to elicit pain behavior were the von Frey fibers, camel hair brush and pinprick, with 6 stimulations of each stimulus. Each variant pain model had the same sequence of stimuli with the positive responses averaged and a student T-test performed for the significance of the post procedural responses as compared to the baseline control data (see Tables 2-6 and 11); and for the post-analgesic responses as compared to the pre-analgesic behavioral data (see Tables 7 and 12).
The tunnels identified by the above studies were then used for the placement of the biocompatible gels by the chosen peripheral nerves. The gelatinous or viscous substances (i.e., the gels) placed by the peripheral nerves or nerve roots contained collagen (e.g., AVITENE® and gelatin) or hydrogels. […]

[2] = tested on: open surgical rat model for CRPS I; conditions: prior art surgical model, Reyna et al. 1999; cited from earlier work
[3] = tested on: Mice with Neural Compression; experiment: von Frey fiber and camel hair brush testing for mechanical allodynia in mice with collagen placed by the posterior tibial nerve; type: in vivo; conditions: for Average # Paw Withdrawals: of 10 stimulations, n=10 mice
Procedure: Biocompatible collagen was prepared for use in the present study. The collagen source was dry gelatin that was prepared using sterile techniques. The dry collagen was measured to 2.5 grams and mixed with 7.5 cc of sterile normal saline. The mixture was heated for 30 seconds in a microwave on 80% power, The mixture was kept soft in warm water (approximately 100 to 110 degrees).
The consistency of the resulting warm collagen was such that it was able to pass through a 23 gauge needle. Humidity and other factors such as temperature can affect the consistency of the substance. 1-cc syringes were used for injection of 0.2 to 0.25 cc of collagen. For the injection, 23 gauge 1″ standard luer lock hypodermic needles were used. The needles were very slightly dulled with a metal file at the tip and edges using sterile technique. The needles were angled at the midpoint with a bevel tip up. The angle was between 30 and 45 degrees, but any angle that allows for easy placement of the injected substance could be used. The needles were then attached to the collagen-filled one cc syringes. The syringes were kept in a warm water bath (100 to 110° F.) to maintain proper gel consistency.
The mice were lightly anesthetized with 1.5 to 2% isoflurane. The mice were then stabilized and aligned such that the left posterior leg was in view. The external anatomic landmarks of the posterior popliteal area were identified. The internal anatomy of this area including the posterior tibial nerve with its artery was mentally visualized with kinesthetic techniques. Kinesthetic techniques are methods that use the kinesthetic sense or the integration of the senses by which movement, mass, turgor, shape, resistance, elasticity, temperature, spatial relationships and position are commonly perceived. It also refers to the integrated use of multiple senses such as touch, proprioception, vision, and hearing. After location of the site for placement of the gel, the needle and syringe were then removed from the warm water bath. The distal portion of the needle was held loosely parallel to the tibia. The needle was allowed to gently penetrate through the dermis by pulling the skin taut over the popliteal fossa. With careful avoidance of tissue resistance, the needle tip, bevel up, was gently slipped beneath the fascial edge of the soleus muscle by the tibial nerve and artery into the deep posterior fascial compartment of the posterior tibial neurovascular tunnel, which is the neurovascular tunnel for the posterior tibial nerve and its proximal branches. When the tip of the needle was at the mid soleus muscle belly, the collagen mixture was slowly injected into the posterior tibial tunnel. The needle was removed and the animals allowed to recover from the anesthetic. All animals were normally moving freely within 20 minutes of anesthesia withdrawal.
Two days after placement of the collagen gel around the nerve, von Frey testing was again performed. Von Frey testing continued for 49 days. […]

[4] = tested on: rat pain model variants; type: in vivo, Sprague Dawley rats; conditions: for von Frey F 4.93 # ST[…]-ANALGESIC: of 6
Procedure: Male Sprague Dawley rats initially weighing between 150 and 175 grams were housed singly. […] The pain behaviors studied were static mechanical allodynia (e.g., light touch stimulation with von Frey fibers 4.56, 4.73, 4.93, and/or 5.07), dynamic mechanical allodynia (e.g., stimulation with moving camel hair brush), and/or mechanical hyperalgesia (e.g., pinprick stimulation).
as §2
The stimuli used to elicit pain behavior were the von Frey fibers, camel hair brush and pinprick, with 6 stimulations of each stimulus.
(§4) The tunnels identified by the above studies were then used for the placement of the biocompatible gels by the chosen peripheral nerves. The gelatinous or viscous substances (i.e., the gels) placed by the peripheral nerves or nerve roots contained collagen (e.g., AVITENE® and gelatin) or hydrogels. The “collagen gel” used in the present study was composed of 0.8 grams of collagen as AVITENE® (microfibrillar collagen hemostat flour, Davol Inc., Cranston, R.I. 02920) and 0.7 grams of collagen as gelatin (Knox gelatin, Kraft Foods, Northfield, Ill. 60093) mixed with 14 cc of normal saline until homogenous. Then the collagen mixture was placed in a PYREX® bowl resting in a paper bowl and covered with a ceramic saucer, then heated for 20 seconds at full power in a microwave. The resulting viscous mixture was kept fluid in a warm water bath at 100-110° F., until used for the placement procedure. The wound hydrogels used in the present study were two types: one contains alginate (SAF-Gel® from ConvaTec of E. R. Squibb & Sons, Princeton, N.J.) and the other contains acemannan from Aloe vera L. (Carrasyn®V from Carrington Laboratories, Irving, Tex.). […] Such hydrogels are used in the care of open dermal wounds as well as in first and second degree burns since they provide a closed moist environment for wound healing.
(§5) The rats were anesthesized with 1.5% to 2% isoflurane for the percutaneous kinesthetic placement of the above “gels” by the specified nerves. Using an angled 23 gauge thin wall 1″ needle, approximately 0.1 cc-0.2 cc of gel was placed percutaneously with kinesthetic technique in the anatomically defined fascial tunnels of the chosen peripheral nerves as described below.
(§6) The doses were given intraperitoneally (I.P.) and behavioral stimulus testing began 40-80 minutes after the dose. The student's t-test (p<0.05) was performed for determining the significance of changes in behaviors associated with pain after the analgesic was administered.

[5] = tested on: rat pain model variants; experiment: Analgesic effect in rat neurogenic pain model variants (overall statement); type: in vivo, Sprague Dawley rats; conditions: Table 12, within 40-80 minutes
Procedure: as §1, §2, §3, §4, §5, §6

[6] = tested on: rat pain model variants; experiment: Mechanical hyperalgesia (pinprick) in rat pain model variants; type: in vivo, Sprague Dawley rats; conditions: for Post Avg, Average Positive stimulations out of 6 total, Stim PP Pin Prick: n=12 rats; for Pinprick # STIMULATIONS POST-ANALGESIC: of 6
Procedure: as §1, §2, §3, §4, §5, §6

[7] = Ethosuximide 100 mg/kg IP, 1 rat tibial n. with Acemann hydrogel, pre 6
[8] = Ethosuximide 100 mg/kg IP, 1 rat tibial n. with Alginate hydrogel, pre 6

NCC1(CC(=O)O)CCCCC1 [gabapentin]
Post Avg, Average Positive stimulations out of 6 total, Stim S Brush ([1]; Gabapentin 50 mg/kg (IP), Pre Avg 3.25, p=9.5E-4): 1.25 | analgesic response [2]: exhibited an analgesic response | Average # Paw Withdrawals ([3]; gabapentin 25 mg/kg IP, post procedure day 58 (9.14 before dose)): 6.86 | Average # Paw Withdrawals ([3]; gabapentin 40 mg/kg IP, post procedure day 65 (9.19 before dose)): 5.81 | Analgesic response (mechanical allodynia) ([3]; gabapentin 25 or 40 mg/kg IP): Analgesic responses were shown | Post Avg, Average Positive stimulations out of 6 total, Stim A vF 4.56 ([4]; Gabapentin 50 mg/kg (IP), n=12 rats, Pre Avg 2.0, p=8.5E-5): 0.25 | Post Avg, Average Positive stimulations out of 6 total, Stim C vF 5.07 ([4]; Gabapentin 50 mg/kg (IP), n=12 rats, Pre Avg 2.42, p=4.4E-4): 0.75 | Post Avg, Average Positive stimulations out of 6 total, Stim B vF 4.93 ([4]; Gabapentin 50 mg/kg (IP), n=12 rats, Pre Avg 2.58, p=5.8E-5): 0.5 | analgesic effect (significance) ([5]; gabapentin 50 mg/kg IP): significant analgesic effects | analgesic effect (significance) ([5]; gabapentin 50 mg/kg IP, listed as Gabapentin): significant analgesic effect | Post Avg, Average Positive stimulations out of 6 total, Stim PP Pin Prick ([6]; Gabapentin 50 mg/kg (IP), Pre Avg 5.08, p=2.6E-5): 2.25

CCC1(C)CC(=O)NC1=O (stereo not drawn) [Ethosuximide, ethosuximide]
Post Avg, Average Positive stimulations out of 6 total, Stim S Brush ([1]; Ethosuximide 200 mg/kg (IP), Pre Avg 4.17, p=1.1E-4): 1.17 | von Frey F 4.93 # ST[…]-ANALGESIC ([4]; Ethosuximide 100 mg/kg IP, 1 rat saphenous n. with Avitene collagen, pre 4): 0 | von Frey F 4.93 # ST[…]-ANALGESIC [4, 7]: 0 | von Frey F 4.93 # ST[…]-ANALGESIC [4, 8]: 0 | von Frey F 4.93 # ST[…]-ANALGESIC ([4]; Ethosuximide 100 mg/kg IP, single rats sciatic n. with Alginate hydrogel (two rats, pre 3 and 6)): 0 | von Frey F 4.93 # ST[…]-ANALGESIC, Total ([4]; Ethosuximide 100 mg/kg IP, total of 5 rats, pre total 25, pre vs post p=1.43E-3): 0 | Post Avg, Average Positive stimulations out of 6 total, Stim A vF 4.56 ([4]; Ethosuximide 200 mg/kg (IP), all rats of Tables 8-10, n=12, Pre Avg 1.83, p=2.9E-3): 0.5 | Post Avg, Average Positive stimulations out of 6 total, Stim B vF 4.93 ([4]; Ethosuximide 200 mg/kg (IP), n=12 rats, Pre Avg 2.92, p=8.4E-5): 0.58 | Post Avg, Average Positive stimulations out of 6 total, Stim C vF 5.07 ([4]; Ethosuximide 200 mg/kg (IP), n=12 rats, Pre Avg 3.92, p=1.4E-5): 0.83 | analgesic effect (significance) ([5]; ethosuximide 200 mg/kg IP): significant analgesic effects | Pinprick # STIMULATIONS POST-ANALGESIC ([6]; Ethosuximide 100 mg/kg IP, 1 rat saphenous n. with Avitene collagen, pre 6): 1 | Pinprick # STIMULATIONS POST-ANALGESIC [6, 7]: 0 | Pinprick # STIMULATIONS POST-ANALGESIC [6, 8]: 2 | Pinprick # STIMULATIONS POST-ANALGESIC ([6]; Ethosuximide 100 mg/kg IP, single rats sciatic n. with Alginate hydrogel (two rats, pre 6 and 6)): 0 and 1 | Pinprick # STIMULATIONS POST-ANALGESIC, Total ([6]; Ethosuximide 100 mg/kg IP, total of 5 rats, pre total 30, pre vs post p=1.6E-4): 4 | Post Avg, Average Positive stimulations out of 6 total, Stim PP Pin Prick ([6]; Ethosuximide 200 mg/kg (IP), Pre Avg 5.25, p=1.4E-8): 1.75
